In patent US8183233B2, “Stable pharmaceutical formulations” (Baxter International Inc., priority 2008, dated 2012):
Like-named read-outs stand apart in the source and are kept apart here.

Key:
[1] = Predicted shelf-life (t90) of meropenem from degradation kinetics; format: physicochemical
Description: The stability and degradation kinetics of meropenem have been studied. Meropenem is predicted to have a shelf-life (t90) of about 0.5 day at 0° C. Extrapolated to −25° C., the predicted shelf-life is less than one month. Meropenem also polymerizes at higher drug concentration by a second-order mechanism. If one requires a meropenem formulation that is ready-to-use, there is value in being able to stabilize these compounds in frozen aqueous media.

[2] = stored at or below −20° C.; cited from earlier work
[3] = 10 mL concentrate in 250 mL infusion diluent, cited from earlier work

**Q.** Which “Predicted shelf-life (t90)” value ([1]; at 0° C.) does the source give for `C[C@@H](O)[C@H]1C(=O)N2C(C(=O)O)=C(S[C@@H]3CN[C@H](C(=O)N(C)C)C3)[C@H](C)[C@H]12` [Meropenem] here?
**A.** The value was “about 0.5 day”.

**Q.** And the Predicted shelf-life ([1]; extrapolated to −25° C.)?
**A.** Its Predicted shelf-life is “less than one”.

**Q.** Which “Time for which the frozen agent is stable” value [2] does the source give for `CO/N=C(\C(=O)N[C@@H]1C(=O)N2C(C(=O)O)=C(CSc3nc(=O)c(=O)[nH]n3C)CS[C@H]12)c1csc(N)n1` [ceftriaxone sodium] here?
**A.** Its value is “at least 18 months”.

**Q.** With `CCC(C)CC(C)CCCCCCCCC(=O)N[C@H]1C[C@@H](O)[C@@H](NCCN)NC(=O)[C@@H]2[C@@H](O)CCN2C(=O)[C@H]([C@H](O)CCN)NC(=O)[C@H]([C@H](O)[C@@H](O)c2ccc(O)cc2)NC(=O)[C@@H]2C[C@@H](O)CN2C(=O)[C@H]([C@@H](C)O)NC1=O` (some centres unmarked) [Caspofungin, Caspofungin acetate] as the molecule, how does the “Time within which the infusion solution must be used” value ([3]; stored at ≦25° C.) read?
**A.** Its value is ≤ 24 h.

**Q.** And the “Time within which the infusion solution must be used” value ([3]; stored refrigerated at 2 to 8° C.)?
**A.** Its value is ≤ 48 h.
